Test results as given in patent publication US20250304623A1, “PEPTIDES FOR INTRACELLULAR DELIVERY” (UNIVERSIDADE DE SANTIAGO DE COMPOSTELA, priority 2022, published 2025).
Starred links: 1 amine or outer side, 2 acyl side, 3 side chain; linkers in the order of their positions; H or OH if unused. Residues, ends and D or L forms follow the SMILES beside them. Groups on a side chain read outwards from the residue. *: point of attachment. Glutaryl = O=C(CCCC(=O)[*:2])[*:1]; X1 = CCCC/C=C\CCCCCCCC=NN*; NHNH2 = NN*

Tests used:
[1] = MTS cell viability of transfected cells, A549; format: cell-based; details: human; A549 cells transfected with Cas9-RNP complexes; myristoleyl, palmitoleyl or petroselinyl aldehydes
Description: For Cas9-RNP delivery, the efficiency on GFP silencing was around 60-70% when complexing the protein with an amphiphile comprising 7.3(Leu-His) and myristoleyl, palmitoleyl or petroselinyl aldehydes. Cells transfected with the above-indicated complexes present a cell viability higher than 80%. Viability assays were performed employing the CellTiter 96© Aqueous Non-Radioactive Cell Proliferation Assay (MTS) and following the manufacturer's instructions. Briefly, 20 μL of the combined MTS/PMS solution were added into each well of the 96-well assay plate containing cells in culture medium (100 μL). The plate was incubated 4 hours at 37° C. and 5% CO2 in a humidified atmosphere. Then, absorbance (490 nm) was recorded in an INFINITE M1000 PRO (TECAN).

[2] = test system: HeLa-EGFP cells; assay: Cas9 ribonucleoprotein delivery, flow cytometry of EGFP negative cells; format: cell-based
Description: FIG. 2 Percentage of editing (in bars, left axis) in HeLa-EGFP cells incubated with Cas9 ribonucleoprotein with an EGFP-targeting gRNA using the amphiphiles comprising 7.3(Leu-His) peptide with myristoleyl, palmitoleyl or petroselinyl aldehydes. After 3 days, EGFP negative cells (bars; left axis) and cell concentration (dots; right axis) were quantified by flow cytometry. ([Cas9]=50 nM, amphiphiles concentration in μM).
The inventors evaluated the intracellular delivery of Cas9 ribonucleoprotein with a gRNA targeting EGFP into HeLa-EGFP cells, using an amphiphilic molecule comprising peptide 7.3(Leu-His) combined with myristoleyl, palmitoleyl or petroselinyl aldehydes. After 3 days, EGFP negative cells were quantified by flow cytometry.

[3] = test system: mice; assay: In vivo FLuc mRNA delivery, i.m. injection, bioluminescence imaging
Description: In vivo bioluminescence imaging (BLI) enables localization and quantification of expression following mRNA delivery in living animals.
The inventors evaluated the mRNA delivery efficiency of amphiphile by i.m. injections of an amphiphile-complexed FLuc mRNA in anesthetized mice using BLI. Amphiphilic molecule stock solutions were prepared in DMSO as described above and diluted in a suitable buffer, such as PBS, or phosphate buffer enriched with inorganic salts. The solutions of mRNA/amphiphile complexes were freshly prepared prior to in vivo experiments. Amphiphile solutions in a suitable buffer, such as PBS, or phosphate buffer enriched with inorganic salts, were mixed with mRNA solutions in a suitable buffer, such as PBS, or phosphate buffer enriched with inorganic salts (1:1 volume ratio, final amount of mRNA per mice=5 μg/mouse). The mixture was shaken for 30 min at room temperature before injection. For each mouse, 5 μg mRNA was complexed with the best candidates obtained from the in vitro experiments, 7.3(Leu-His) with myristoleyl aldehyde (7.3(Leu-His) M) (FIG. 7) or with palmitoleyl aldehyde (7.3(Leu-His) PA) (FIG. 8), and administered by i.m. injection in the right flank in 50 μL of a suitable buffer, such as PBS, or phosphate buffer enriched with inorganic salts. As control, 5 μg of naked mRNA was injected in three mice. Luciferase expression was evaluated over 48 h, starting at 1 h after the administration of mRNA complexes. […] In contrast, i.m. injections of naked mRNA afforded only low levels of luciferase expression, as measured by photon flux, in all mice. The experiment was performed in, at least, triplicates (3 mice per condition).
After obtaining the conditions providing the highest expression, a second round of i.m. delivery of FLuc mRNA was performed to further optimize the formulation of the complexes. […]

[4] = test system: mice; assay: In vivo FLuc mRNA delivery, i.v. injection, predilution formulation, BLI; details: i.v. tail vein, organs after 24 h
Description: FIG. 10A In vivo mRNA transfection. Representative bioluminescence images of animals and extracted organs following i.v. (intravenous) injection of FLuc mRNA/amphiphile complexes (0, 2.5 and 5 μM of 7.3(Leu-His) M) at different times (1 h, 4 h, 7 h and 24 h). 1.3 μg FLuc mRNA were used in all conditions. FIG. 10B Quantification of the organs' bioluminescence
In the case of i.v. administration (tail vein), luciferase expression was evaluated over 24 h, starting at 1 h after the administration of mRNA complexes. After that time, the specimens were sacrificed, and each organ was analysed individually using BLI for quantification of the expression. In this case, preferred conditions involved the injection of 50 μL of complex solution in a suitable buffer, such as PBS, or phosphate buffer enriched with inorganic salts, comprising 2.5 μM 7.3(Leu-His) M and 1.3 μg/mouse FLuc mRNA.

[5] = test system: HepG2

Structure (SMILES)	viability [1]	% of editing (EGFP negative cells) ([2]; Cas9 50 nM, flow cytometry after 3 days, amphiphile tails myristoleyl or palmitoleyl)	concentration of cells relative to Lipofectamine ([2]; after 3 days, myristoleyl or palmitoleyl aldehydes, on average)	conditions giving highest bioluminescence (FLuc expression) ([3]; 2.5 μM amphiphile, 1.25, 3 or 5 μg/mouse FLuc mRNA)	luciferase activity at the site of injection ([3]; 5 μg FLuc mRNA)	time of peak luciferase expression ([3]; 5 μg FLuc mRNA, all concentrations tested (2.5, 5, 10 μM))	biodistribution of bioluminescence [4]	IC50 [5]
CC(=O)N[C@@H](CCCNC(=N)N)C(=O)N[C@@H](CCCCNC(=O)CCCC(=O)NN)C(=O)N[C@@H](Cc1c[nH]cn1)C(=O)N[C@@H](CCCNC(=N)N)C(=O)N[C@@H](CCCCNC(=O)CCCC(=O)NN)C(=O)N[C@@H](CCCCNC(=O)CCCC(=O)NN)C(=O)N[C@@H](Cc1c[nH]cn1)C(N)=O [7.3(L-H), Ac-RK*HRK*K*H-NH2] (Ac-RK([Glutaryl-NHNH2])HRK([Glutaryl-NHNH2])K([Glutaryl-NHNH2])H-NH2)	> 80%	70%	three times higher					
CCCC/C=C\CCCCCCCC=NNC(=O)CCCC(=O)NCCCC[C@H](NC(=O)[C@H](CCCCNC(=O)CCCC(=O)NN=CCCCCCCC/C=C\CCCC)NC(=O)[C@H](CCCNC(=N)N)NC(=O)[C@H](Cc1c[nH]cn1)NC(=O)[C@H](CCCCNC(=O)CCCC(=O)NN=CCCCCCCC/C=C\CCCC)NC(=O)[C@H](CCCNC(=N)N)NC(C)=O)C(=O)N[C@@H](Cc1c[nH]cn1)C(N)=O [7.3(Leu-His) M] (Ac-RK([Glutaryl-X1])HRK([Glutaryl-X1])K([Glutaryl-X1])H-NH2)				achieved with the complexes formed by 2.5 μM amphiphile and 5 μg/mouse of FLuc mRNA	High levels of luciferase activity	7 h	a preferred spleen biodistribution of the bioluminiscence was observed, followed by liver expression and, to a lesser extent, in the lungs	~60 µM
